In paper PMC4448982, “LP-925219 maximizes urinary glucose excretion in mice by inhibiting both renal SGLT1 and SGLT2” (Pharmacology Research & Perspectives, 2015):

How the values were obtained:
[1] = molecular target: T1, mouse SGLT2 (Mus musculus, UniProt Q923I7); experiment: 14C-AMG uptake assay, HEK293 cells expressing mouse SGLT2; assay type: cell-based; conditions: mean ± SD
T1 construct: expressed in transfected cells; host or cells: HEK293 (per abstract)
T1 sequence (Q923I7 1-670): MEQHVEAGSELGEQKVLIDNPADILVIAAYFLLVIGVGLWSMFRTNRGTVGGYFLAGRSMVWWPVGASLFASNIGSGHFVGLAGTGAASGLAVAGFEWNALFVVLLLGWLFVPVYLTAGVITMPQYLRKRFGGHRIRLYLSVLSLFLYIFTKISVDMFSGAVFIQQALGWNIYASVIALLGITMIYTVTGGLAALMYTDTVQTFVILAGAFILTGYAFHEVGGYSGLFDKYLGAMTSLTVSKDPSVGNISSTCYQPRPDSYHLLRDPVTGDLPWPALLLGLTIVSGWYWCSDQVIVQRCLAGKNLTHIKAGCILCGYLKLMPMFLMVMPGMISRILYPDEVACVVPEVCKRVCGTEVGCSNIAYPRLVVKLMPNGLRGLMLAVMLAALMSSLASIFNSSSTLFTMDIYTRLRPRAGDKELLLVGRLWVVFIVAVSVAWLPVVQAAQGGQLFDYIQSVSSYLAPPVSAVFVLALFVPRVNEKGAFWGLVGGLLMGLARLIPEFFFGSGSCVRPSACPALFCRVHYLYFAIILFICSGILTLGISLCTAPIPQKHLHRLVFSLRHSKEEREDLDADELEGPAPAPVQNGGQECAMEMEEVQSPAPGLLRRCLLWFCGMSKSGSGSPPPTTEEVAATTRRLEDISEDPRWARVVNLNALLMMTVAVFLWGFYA
Description: Methods for generating cell lines expressing mouse, rat, and dog SGLT1 and SGLT2 are published (Powell et al. [2013b], [2014]). Full-length coding sequence of human SGLT1 (NP_000334) and human SGLT2 (NP_003032.1) with an HA-tag at the N-terminus were cloned into the mammalian expression vector pIRESpuro2 (Clontech, Mountain View, CA). HEK293 cells (ATCC, Manassas, VA) were transfected with the pIRESpuro2 vector containing human SGLT1 or SGLT2 and bulk stable cell lines were selected in the presence of 0.5 μg/mL of puromycin.
Cell lines expressing SGLT1 or SGLT2 were plated into poly-D-lysine-coated 384-well plates, and culture overnight in cell growth medium. Cells were washed, and then incubated in uptake buffer ([…], […] KCl, […] CaCl2, […] MgCl2, […] HEPES/Tris, 1 mg/mL of bovine serum albumin, pH7.4) containing [^14C]α-methylglucopyranoside (^14C-AMG), a nonmetabolizable glucose analog specific for sodium-dependent glucose transporters (Wright and Turk [2004]). The inhibition of SGLT1 or SGLT2 was determined by measuring SGLT1/2-mediated ^14C-AMG uptake in the presence of increasing compound concentrations of LP-925219. […] Standard sigmoidal dose–response model curves were fitted, and the IC50 value was computed as the LP-925219 concentration that inhibited the ^14C-AMG uptake by 50% between baseline and maximum uptake.

[2] = molecular target: T2, intestinal SGLT1 (Mus musculus, UniProt Q8C3K6); experiment: Glucose-containing meal challenge in C57 mice; assay type: in vivo
T2 construct: from tissue; host or cells: small intestine of living male C57BL/6-Tyrc-Brd mice
T2 sequence (Q8C3K6 1-665): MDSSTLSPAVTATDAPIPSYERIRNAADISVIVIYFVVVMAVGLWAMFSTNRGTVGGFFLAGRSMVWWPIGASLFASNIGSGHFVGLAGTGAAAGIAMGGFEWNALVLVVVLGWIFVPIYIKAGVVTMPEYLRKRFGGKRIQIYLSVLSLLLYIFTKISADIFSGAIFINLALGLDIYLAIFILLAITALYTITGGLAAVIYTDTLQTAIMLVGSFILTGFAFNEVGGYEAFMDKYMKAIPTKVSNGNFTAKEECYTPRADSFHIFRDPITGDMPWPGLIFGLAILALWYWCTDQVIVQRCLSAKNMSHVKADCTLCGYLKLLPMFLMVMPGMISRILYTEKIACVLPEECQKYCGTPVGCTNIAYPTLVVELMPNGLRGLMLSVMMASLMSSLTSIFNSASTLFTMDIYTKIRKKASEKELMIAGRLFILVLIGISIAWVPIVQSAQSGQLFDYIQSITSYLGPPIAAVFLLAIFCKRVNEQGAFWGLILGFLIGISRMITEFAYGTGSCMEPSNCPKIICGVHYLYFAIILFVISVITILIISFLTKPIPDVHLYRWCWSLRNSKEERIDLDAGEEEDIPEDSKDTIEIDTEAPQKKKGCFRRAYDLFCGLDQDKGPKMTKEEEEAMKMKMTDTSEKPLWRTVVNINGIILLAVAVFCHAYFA
Procedure: A meal consisting of low-fat diet (10% kcal as fat, D12450B; Research Diets, New Brunswick, NJ) supplemented with glucose was prepared by adding 50 g of low-fat diet powder and 9.4 g of glucose to water with a final volume of 94 mL. At 8:30 am, C57 mice in the fed state received either vehicle or 50 mg/kg LP-925219 by oral gavage; 30 min later, at Time = 0, each mouse received 25 mL/kg of the above meal (9.2 g/kg glucose, 2.5 g/kg protein, 0.6 g/kg fat) by oral gavage as described previously (Powell et al. [2013b]). Blood obtained from unanesthetized mice at 0, 10, and 30 min by tail nick, and at 60 min by retro-orbital bleed, was assayed for whole blood glucose using an Accu-Chek Aviva glucometer (Roche Diagnostics, Indianapolis, IN). The blood obtained at 60 min was also used to measure circulating levels of total GLP-1 (tGLP-1; Glucagon-Like Peptide-1 Total ELISA Kit, catalog #EZGLP1T-36K, EMD Millipore, Billerica, MA) as described previously (Powell et al. [2013b]). After their blood was drawn at 60 min, mice were anesthetized with isoflurane (TW Medical Veterinary Supply, Lago Vista, TX) and then euthanized by cervical dislocation. Cecal contents were then collected and analyzed for glucose and pH as described previously (Powell et al. [2013b]). Blood glucose time-course data were converted to area under the curve (AUC) values by trapezoidal summation using GraphPad Prism v4.03.
Mice received either vehicle or LP-925219 at a dose of 50 mg/kg (n = 5 for each group) by oral gavage; 30 min later the mice received, by oral gavage at Time 0, a glucose-containing meal challenge. (A) Blood glucose levels were measured at 0, 10, 30, and 60 min; for each mouse, blood glucose levels were used to calculate an AUC value for statistical analysis. At 60 min, blood was obtained for (B) tGLP-1 levels, and cecal contents were obtained and assayed for (C) cecal glucose and (D) cecal pH. LP-925219-treated value different from vehicle, *P < 0.05, **P < 0.01, ***P < 0.001. AUC, area under the curve.

[3] = 50 mg/kg oral gavage, 60 min after meal, vs vehicle

With `COc1ccc(Cc2cc([C@@H]3O[C@H](SC)[C@@H](O)[C@H](O)[C@H]3O)ccc2Cl)cc1` [LP-925219] the IC50 [1] was 0.5 ± 0.1 nM, the “blood glucose AUC after meal challenge” value ([2]; 50 mg/kg oral gavage 30 min before meal, 0-60 min, vs vehicle, P < 0.05) was “significant decrease” and the cecal glucose [2, 3] was “more glucose”. For the same compound, the “cecal pH” value [2, 3] was “lower pH”, the “circulating total GLP-1” value [2, 3] was “increased levels” and the diarrhea ([2]; 50 mg/kg oral gavage, short-term study) was “not observed”.
